According to patent publication US20060078502A1, “Charge neutral complexes of paramagnetic metals as intracellular magnetic resonance imaging contrast agents” (priority 2004, published 2006):

Tests used:
[1] = tested on: human neutrophils; assay: Kinetics of complex loading into cells; type: cell-based; conditions: 37° C., neutrophils in donor plasma, 3.7 mg gadolinium
Experimental: Kinetics of Complex Loading into Cells. For this study, human neutrophils were obtained from a single donor and suspended in 50 microliters of the same donor's plasma in a series of test tubes. The neutrophils were incubated at 37° C. with gadolinium pyrithione complex in a shaker bath. The amount of gadolinium pyrithione used for each test tube provided 3.7 mg of gadolinium, which was added to the test tube in 250 microliters of acetate buffer. After various incubation times, the neutrophil cells were centrifuged, washed with buffer and the amount of neutrophil-bound gadolinium was calculated.

[2] = Storage stability of the complex (solution formulation, lyophilized); type: physicochemical; conditions: after one year of storage in the refrigerator; acetate-dextrose buffer, pH 6.4
Experimental: The contrast agent of the invention can be packaged into kit form. Conveniently, the complexes are formed as described herein, sterilized, filled into sterile bottles and then freeze-dried (lyophilized). The lyophilized complex is stable when stored for at least one year at 4° C. The lyophilized complex is reconstituted in acetate buffer (about 0.2 M NaOAc, pH 6.0 to 6.4) to the desired concentration for injection for use.
Fifty microliters of the gadolinium chloride solution is mixed with 250-400 microliters of the pyrithione solution. A white precipitate of gadolinium pyrithione complex is formed, which is vortexed for good mixing. The gadolinium pyrithione complex is dissolved in 1250 microliters of 0.2 molar acetate-dextrose buffer. The final pH is adjusted to 6.4 with a pH electrode (Beckman-Coulter). The osmolarity of the solution is checked by the freezing point method to 275 mOsmole. The gadolinium pyrithione complex solution is sterilized by membrane filtration (0.22 micrometer filter) and stored in a refrigerator.
(§1) This formulation is found to be stable after one year of storage in the refrigerator. It is soluble in 0.2 molar acetate buffer, in a mixture of acetate buffer and saline or human plasma facilitating the storage of Gd-complex, its transport and control of reconstitution by adjustment of injectate volume, and its use in cell-tagging and administration of tagged cells.

[3] = Solubility of the complex; type: physicochemical; conditions: 0.2 molar acetate buffer; mixture of acetate buffer and saline or human plasma
Description: A paramagnetic metal atom has one or more unpaired […], providing a half-integral “spin” quantum number. For metal complex MRI contrast agents, the MRI relaxation efficiency per molecule depends on the nature of the metal in the chelate complex and the size of the metal chelate complex. These contrast agents serve as relaxation sinks for the protons of adjacent water molecules. The metal complex lattice receives the energy from the protons excited by radiofrequency (RF) pulses. […] This facilitates energy transfer, and provides increased imaging efficiency. The complexes of the present invention are soluble in lipids and provide relaxivities in the range 50-150 millimole^−1 second^−1. The gadolinium complexes of this invention, for instance, provide T1 relaxivity values of 80 per millimole per second and T2 values of 93 millimole^−1 second^−1. The complexes of the present invention are thus particularly useful as intra-cellular MRI contrast agents.
as §1

[4] = tested on: plasma lipoproteins (VLDL, LDL and HDL); assay: Kinetics of gadolinium complex binding to plasma lipoproteins; type: in vitro ADME; conditions: Gd-153 labeled, 60 minutes at room temperature, density gradient separation
Experimental: For this study, the galadolinium pyrithione complex labeled with Gd-153 was incubated directly with isolated lipoprotein particles in acetate-citrate buffer or was incubated with intact plasma for 60 minutes at room temperature. Very low, low and high-density lipoproteins (VLDL, LDL and HDL) were separated by cesium chloride density gradients (1.06 and 1.25 g/ml) in an ultracentrifuge (Beckman L8-55) in a swinging bucket rotor using standard protocols. The mixture in 4.5 ml in polyallomer tubes was spun at 210,000 g for 20 hours. The plasma proteins in the […], and layers representing each of VLDL, LDL and HDL were removed from the top of the tube by suction. The amount of gadolinium pyrithione bound to VLDL, LDL, HDL and plasma proteins was measured by counting the radioactivity in each fraction with the gamma well counter. The majority of gadolinium complexes were bound to lipoproteins. Accordingly, the gadolinium-tagged lipoprotein particles are useful to localize the sites of vulnerable plaques in patients, thus identifying the rupture-prone vulnerable plaques in the coronary or carotid arteries with MRI.

[5] = tested on: C3H mouse; assay: MRI processing and imaging of a mouse after intravenous administration; type: in vivo
Description: A Bruker 7.0 Tesla MRI System (BioSpin MRI Gmbh, Avance) operated at 300 MHz was used in this study. The system parameters are optimized for high resolution imaging with either T1-weighted (Gd-complexes) or T2-weighted agents (Fe-complexes). The mouse was placed on a stereotactic holder with a prone position. The holder stayed in the center of the 32 mm bore of the transmitter-receiver RF coil. The tail-vein was cannulated with a 27-29 G needle for delivery of contrast agents via slow infusion. 0.2 ml of 6 μM of the gadolium pyrithione complex was administered per dose. Two doses were administered 27 minutes apart. After acquisition of scout images, T1-weighted data were acquired with a spoiled gradient echo sequence, T1=100 to 700 ms, for example, 200 ms, TR (repetition time)=10 to 500 ms, for example, 13 ms, TE (echo time)=5 to 10 ms, for example, 6 ms, and flip angle=60-90 degree. Data were acquired before and after injection of contrast media to evaluate the reduction of tissue T1-values from 500-700 ms to 100-200 ms with the Gd-complexes or Gd-tagged cells.
FIG. 1 presents a T1-weighted MR image (coronal slice, 1 mm thickness) of the C3H mouse at 3 minutes after the second intravenous administration of Gd-(tris)pyrithione complex, providing an image at 3 and 30 minutes post administration. […] The conclusion that the complex is stable is reached because, unstable Gd-complexes hydrolyze and Gd-colloids form and localize in the macrophage pool of reticuloendothelial system of liver, spleen and bone marrow.

## [Gd+3].[O-][n+]1ccccc1[S-].[O-][n+]1ccccc1[S-].[O-][n+]1ccccc1[S-] [gadolinium pyrithione complex, gadolinium (tris)pyrithione]
[1]; incubation time 05 minutes
  Gadolinium (% in cells): 99.21%
[1]; incubation time 10 minutes
  Gadolinium (% in cells): 99.75%
[1]; incubation time 30 minutes
  Gadolinium (% in cells): 99.36%
[1]; incubation time 45 minutes
  Gadolinium (% in cells): 99.11%
[2]
  stability of formulation on storage: stable
[3]
  solubility: soluble
[4]
  fraction of complex bound to lipoproteins: majority
[5]; 3 and 30 minutes post administration
  imaging of liver, spleen and bone marrow (reticuloendothelial system): None of these tissues were imaged
[5]; C3H mouse, intravenous, two doses 27 minutes apart, T1-weighted MRI
  in vivo stability of the agent: stable
[5]; thirty minutes after the first administration
  localization in late phase: bladder
[5]; three minutes after the second administration
  localization in early phase post-IV injection: heart
